Laboratory results taken from ChEMBL document CHEMBL3797126, “Oxaspirol B with p97 Inhibitory Activity and Other Oxaspirols from Lecythophora sp. FL1375 and FL1031, Endolichenic Fungi Inhabiting Parmotrema tinctorum and Cladonia evansii” (J Nat Prod, 2016).
Each block holds one compound with its values, some of them ahead of it. Active and inactive are the calls of the source. The rule behind the calls is not given here.

How the values were obtained:
[1] = target: ATP-dependent clpX-like chaperone, mitochondrial (Homo sapiens) (UniProt O76031); experiment: Inhibition of type 1 AAA+ chaperone ClpX (unknown origin) up to 200 uM
Chain of ATP-dependent clpX-like chaperone, mitochondrial (Homo sapiens) (O76031 whole entry): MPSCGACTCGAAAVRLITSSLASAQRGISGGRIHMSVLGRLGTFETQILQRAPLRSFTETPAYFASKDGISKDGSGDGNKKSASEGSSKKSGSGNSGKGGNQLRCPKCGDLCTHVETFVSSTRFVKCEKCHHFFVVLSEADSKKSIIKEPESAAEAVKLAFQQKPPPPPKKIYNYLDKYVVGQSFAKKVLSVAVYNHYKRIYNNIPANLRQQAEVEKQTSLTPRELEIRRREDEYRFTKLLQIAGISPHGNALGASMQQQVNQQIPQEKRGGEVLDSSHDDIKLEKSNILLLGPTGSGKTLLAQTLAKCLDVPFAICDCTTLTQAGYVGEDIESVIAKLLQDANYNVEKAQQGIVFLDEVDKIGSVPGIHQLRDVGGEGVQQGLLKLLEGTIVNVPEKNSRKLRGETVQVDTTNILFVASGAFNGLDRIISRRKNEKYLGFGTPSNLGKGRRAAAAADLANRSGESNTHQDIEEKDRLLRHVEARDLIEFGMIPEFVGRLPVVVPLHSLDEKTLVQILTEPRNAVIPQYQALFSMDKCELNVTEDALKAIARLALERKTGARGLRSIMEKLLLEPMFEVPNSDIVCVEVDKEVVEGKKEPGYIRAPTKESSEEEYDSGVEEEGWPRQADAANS

[2] = target: Transitional endoplasmic reticulum ATPase (Homo sapiens, UniProt P55072, C522A); experiment: Inhibition of p97-C522A mutant (unknown origin) after 10 mins by malachite green dye based visible spectrophotometry
Chain of Transitional endoplasmic reticulum ATPase (Homo sapiens, UniProt P55072, C522A) (P55072 2-806 C522A limits assumed): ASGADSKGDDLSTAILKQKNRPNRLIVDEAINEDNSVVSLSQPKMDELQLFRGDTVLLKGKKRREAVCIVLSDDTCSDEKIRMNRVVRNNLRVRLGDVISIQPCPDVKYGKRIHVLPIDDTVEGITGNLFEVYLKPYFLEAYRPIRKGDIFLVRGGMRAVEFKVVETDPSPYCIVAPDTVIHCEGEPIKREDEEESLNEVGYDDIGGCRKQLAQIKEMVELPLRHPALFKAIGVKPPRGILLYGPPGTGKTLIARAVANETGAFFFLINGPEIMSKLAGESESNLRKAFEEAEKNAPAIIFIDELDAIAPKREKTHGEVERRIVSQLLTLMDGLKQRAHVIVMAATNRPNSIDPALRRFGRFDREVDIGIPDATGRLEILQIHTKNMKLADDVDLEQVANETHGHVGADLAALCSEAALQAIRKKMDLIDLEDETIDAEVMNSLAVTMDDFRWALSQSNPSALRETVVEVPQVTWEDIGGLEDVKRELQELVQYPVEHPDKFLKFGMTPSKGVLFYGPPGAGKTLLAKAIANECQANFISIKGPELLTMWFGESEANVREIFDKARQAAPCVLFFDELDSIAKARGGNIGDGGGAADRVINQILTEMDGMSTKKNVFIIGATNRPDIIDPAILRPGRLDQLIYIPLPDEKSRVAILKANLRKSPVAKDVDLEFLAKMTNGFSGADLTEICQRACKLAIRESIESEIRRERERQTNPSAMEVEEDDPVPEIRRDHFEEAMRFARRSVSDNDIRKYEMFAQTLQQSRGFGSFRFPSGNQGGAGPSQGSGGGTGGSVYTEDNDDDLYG

[3] = target: Vesicle-fusing ATPase (Homo sapiens) (UniProt P46459); experiment: Inhibition of type 2 AAA+ N-ethylmaleimide sensitive factor (unknown origin) up to 200 uM
Chain of Vesicle-fusing ATPase (Homo sapiens) (P46459 whole entry): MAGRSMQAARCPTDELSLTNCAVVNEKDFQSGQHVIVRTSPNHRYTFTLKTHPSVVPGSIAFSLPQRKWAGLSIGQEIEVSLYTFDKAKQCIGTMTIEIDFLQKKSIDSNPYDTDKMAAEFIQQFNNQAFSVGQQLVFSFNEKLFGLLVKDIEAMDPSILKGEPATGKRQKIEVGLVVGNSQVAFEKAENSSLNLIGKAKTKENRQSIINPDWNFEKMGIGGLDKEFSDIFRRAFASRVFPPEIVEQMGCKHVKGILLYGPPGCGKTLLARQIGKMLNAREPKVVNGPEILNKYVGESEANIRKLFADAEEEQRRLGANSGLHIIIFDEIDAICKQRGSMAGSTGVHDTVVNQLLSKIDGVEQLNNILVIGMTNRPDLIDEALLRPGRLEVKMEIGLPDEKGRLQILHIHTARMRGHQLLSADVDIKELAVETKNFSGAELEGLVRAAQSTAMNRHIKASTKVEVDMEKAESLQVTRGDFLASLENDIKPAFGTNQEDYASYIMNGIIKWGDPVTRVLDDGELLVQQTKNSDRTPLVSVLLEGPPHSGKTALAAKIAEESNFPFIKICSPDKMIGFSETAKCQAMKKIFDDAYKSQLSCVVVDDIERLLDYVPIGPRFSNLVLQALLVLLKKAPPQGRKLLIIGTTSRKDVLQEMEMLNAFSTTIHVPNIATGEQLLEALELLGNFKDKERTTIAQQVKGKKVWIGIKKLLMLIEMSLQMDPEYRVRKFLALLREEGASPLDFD

[4] = target: Transitional endoplasmic reticulum ATPase (Homo sapiens, UniProt P55072, C209A); experiment: Inhibition of p97-C209A mutant (unknown origin) after 10 mins by malachite green dye based visible spectrophotometry
Chain of Transitional endoplasmic reticulum ATPase (Homo sapiens, UniProt P55072, C209A) (P55072 2-806 C209A limits assumed): as the sequence (P55072 2-806 C522A limits assumed) above, with C208A, A521C counted along it

[5] = target: T1, Transitional endoplasmic reticulum ATPase (Homo sapiens, UniProt P55072); experiment: Inhibition of p97 (unknown origin) ATPase activity after 10 mins by malachite green dye based visible spectrophotometry
Target sequence in this assay (P55072 whole entry): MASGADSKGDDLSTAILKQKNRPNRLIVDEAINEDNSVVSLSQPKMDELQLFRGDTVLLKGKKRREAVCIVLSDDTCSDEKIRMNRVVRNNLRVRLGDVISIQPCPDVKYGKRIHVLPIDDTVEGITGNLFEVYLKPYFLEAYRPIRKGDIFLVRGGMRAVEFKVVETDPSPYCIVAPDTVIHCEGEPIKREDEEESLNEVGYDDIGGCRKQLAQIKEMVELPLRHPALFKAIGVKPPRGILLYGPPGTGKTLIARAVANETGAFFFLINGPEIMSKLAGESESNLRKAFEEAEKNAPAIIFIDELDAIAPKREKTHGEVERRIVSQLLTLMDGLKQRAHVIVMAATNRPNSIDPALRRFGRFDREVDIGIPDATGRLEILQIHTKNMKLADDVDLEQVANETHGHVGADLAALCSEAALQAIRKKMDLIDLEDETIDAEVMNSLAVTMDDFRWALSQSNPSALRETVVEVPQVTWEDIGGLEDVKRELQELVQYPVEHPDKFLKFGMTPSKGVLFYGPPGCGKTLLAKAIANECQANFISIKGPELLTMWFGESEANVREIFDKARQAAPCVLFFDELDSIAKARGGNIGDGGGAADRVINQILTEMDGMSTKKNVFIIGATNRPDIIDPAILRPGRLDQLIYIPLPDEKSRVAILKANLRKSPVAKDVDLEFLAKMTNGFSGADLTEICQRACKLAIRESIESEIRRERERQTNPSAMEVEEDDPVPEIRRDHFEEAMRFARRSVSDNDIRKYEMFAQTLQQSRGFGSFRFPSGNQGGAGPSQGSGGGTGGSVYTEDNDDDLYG

[6] = target: chaperonin GroEL (Escherichia coli) (UniProt P0A6F5); experiment: Inhibition of Escherichia coli chaperonin GroEL up to 200 uM
Chain of chaperonin GroEL (Escherichia coli) (P0A6F5 whole entry, looked up, the tested form may be a part): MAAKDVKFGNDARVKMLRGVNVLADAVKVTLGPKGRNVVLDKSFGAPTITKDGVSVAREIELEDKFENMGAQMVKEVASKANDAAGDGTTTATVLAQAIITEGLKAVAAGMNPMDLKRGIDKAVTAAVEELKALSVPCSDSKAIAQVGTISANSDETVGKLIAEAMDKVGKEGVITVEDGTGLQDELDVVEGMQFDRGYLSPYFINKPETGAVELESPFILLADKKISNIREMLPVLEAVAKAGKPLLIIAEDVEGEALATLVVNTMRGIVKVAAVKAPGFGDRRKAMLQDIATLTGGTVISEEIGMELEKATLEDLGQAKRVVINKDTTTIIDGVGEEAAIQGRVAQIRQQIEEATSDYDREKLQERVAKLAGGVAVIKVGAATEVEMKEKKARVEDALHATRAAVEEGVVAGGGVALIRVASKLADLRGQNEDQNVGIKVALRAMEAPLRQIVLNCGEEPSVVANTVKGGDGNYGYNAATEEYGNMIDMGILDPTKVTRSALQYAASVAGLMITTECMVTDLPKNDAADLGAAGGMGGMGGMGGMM

[7] = target: T1, Transitional endoplasmic reticulum ATPase; experiment: Inhibition of p97 (unknown origin) ATPase in HEK293 cells expressing UbG76VGFP fusion protein assessed as level of UbG76VGFP rescued by measuring GFP fluorescence loss by flow cytometry; type: cell-based
Target sequence in this assay (P55072 2-806 limits assumed): as the sequence (P55072 2-806 C522A limits assumed) above, with A521C counted along it

[8] = target: T1, Transitional endoplasmic reticulum ATPase; settings: 100 uM
Target sequence in this assay (P55072 2-806 limits assumed): as the sequence (P55072 2-806 C522A limits assumed) above, with A521C counted along it
Description: Reversible inhibition of p97 (unknown origin) ATPase activity at 100 uM after prolonged incubation of 6 hrs followed by dialysis for 2 hrs by malachite green dye based visible spectrophotometry

[9] = target: T1, Transitional endoplasmic reticulum ATPase; experiment: Inhibition of p97 (unknown origin) ATPase in HEK293 cells expressing T cell receptor alpha-GFP assessed as level of T cell receptor alpha-GFP rescued by flow cytometry; type: cell-based
Target sequence in this assay (P55072 2-806 limits assumed): as the sequence (P55072 2-806 C522A limits assumed) above, with A521C counted along it

[10] = target: T1, Transitional endoplasmic reticulum ATPase; settings: 200 uM
Target sequence in this assay (P55072 2-806 limits assumed): as the sequence (P55072 2-806 C522A limits assumed) above, with A521C counted along it
Description: Inhibition of p97 cysteine-less mutant (unknown origin) at 200 uM after 10 mins by malachite green dye based visible spectrophotometry

[11] = target: T1, Transitional endoplasmic reticulum ATPase; experiment: Reversible inhibition of p97 (unknown origin) ATPase activity after prolonged incubation followed by dialysis
Target sequence in this assay (P55072 2-806 limits assumed): as the sequence (P55072 2-806 C522A limits assumed) above, with A521C counted along it

[12] = target: T1, Transitional endoplasmic reticulum ATPase; experiment: Inhibition of p97 (unknown origin) ATPase activity up to 200 uM after 10 mins by malachite green dye based visible spectrophotometry
Target sequence in this assay (P55072 2-806 limits assumed): as the sequence (P55072 2-806 C522A limits assumed) above, with A521C counted along it

Compound: C=C1OC(=O)C2(C1=O)[C@H](/C=C/C=C/CCC)C=C[C@@H](O)[C@@H]2O (mixture of isomers)
inhibition [1]: inactive | IC50 [2]: 26.3 µM | inhibition [3]: inactive | IC50 [4]: 18 µM | IC50 [5]: 31.2 µM | inhibition [6]: inactive | inhibition [7]: Dose-dependent effect | inhibition [8]: Active | inhibition [9]: Dose-dependent effect | inhibition [10]: inactive

inhibition [11]: inactive
Compound: C[C@H]1CCC/C=C/C(=O)c2c(O)cc(O)cc2CC(=O)O1

inhibition [12]: inactive
Compound: C=C1OC(=O)[C@]2(C1=O)[C@H](/C=C/C=C/CCC)C=C[C@@H](OC(C)=O)[C@@H]2OC(C)=O

inhibition [12]: inactive
Compound: C=C1OC(=O)[C@@]2(C1=O)[C@H](/C=C/C=C/CCC)C=C[C@@H](OC(C)=O)[C@@H]2OC(C)=O
